Laboratory results from PubChem BioAssay (NCI).
Values joined by “and” are separate entries in the source; they are usually repeats but may differ in a detail not shown here. Identical values can stand only once.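 Exposure lasted 48 hours, with cells grown in 96-well plates and compounds tested at five concentrations. Here, GI50 denotes the concentration required for 50% inhibition of growth. TGI: total growth inhibition.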

Experiments:
Experiment in all cases: inhibition of tumour cell growth, NCI panel, 48 h
[1] = system: A498 renal
[2] = system: HCC-2998 colon
[3] = system: TK-10 renal
[4] = system: HCT-15 colon
[5] = system: SR leukemia
[6] = system: SNB-19 CNS
[7] = system: SNB-75 CNS
[8] = system: MALME-3M melanoma
[9] = system: HOP-92 NSCLC
[10] = system: MDA-MB-231 breast

Row | Compound | GI50 [1] | TGI [1] | GI50 [2] | TGI [2] [µM] | GI50 [3] [nM] | TGI [3] [µM] | GI50 [4] | TGI [4] [µM] | GI50 [5] [nM] | TGI [5] [µM] | GI50 [6] | TGI [6] [µM] | GI50 [7] [nM] | TGI [7] [µM] | GI50 [8] [nM] | TGI [8] [µM] | GI50 [9] [nM] | TGI [9] [µM] | GI50 [10] | TGI [10] [µM]
1 | COc1cc(C2CC(c3cc(Cl)c(C)cc3O)=NN2c2ccc(S(N)(=O)=O)cc2)cc(OC)c1OC (configuration not stated) | 4150 nM | 15.3 µM | 1840 nM | 3.75 | 2600 | 6.6 | 3280 nM | 11.8 | 2470 | 7.35 | 4610 nM | 23.9 | 2450 | 28.3 | 2080 | 4.89 | 2140 | 6.99 | 2090 nM | 5.01
2 | O=C(O)CNCc1c2ccccc2nc2ccccc12 |  | > 100 µM |  | > 100 |  | > 100 |  | > 100 |  | > 70.5 |  | > 100 |  | > 79.4 |  | > 100 |  | 85.4 |  | > 100
3 | O=C1c2ccccc2-c2c1c1ccccc1c(=O)n2CCCNCCO |  | 1.28 µM | 1280 nM | 5.74 | 1330 | 7.44 | 554 nM | 6.13 | 86 | 0.618 | 813 nM | 6.73 | 1430 | 5.68 | 511 | 1.93 | 357 | 2.61 | 1500 nM | 6.55
4 | CCN(CC)CCn1nc2c3c(cccc3c1=O)-c1ccccc1-2 | 2980 nM | 9.95 µM | 2000 nM | 11 | 2090 | 34.4 | 1440 nM | 13.3 | 896 | 8.98 | 2630 nM | > 50 | 3270 | 11.1 | 1670 | 7.37 | 3110 | 24.9 | 4920 nM | 19.4
5 | CO[C@H]1/C=C/C=C/C=C/C[C@H](OC(=O)[C@@H](C)NC(=O)C2CCCCC2)[C@H](C)[C@@H](O)/C(C)=C\CCC2=CC(=O)C=C(NC(=O)C1)C2=O | 282 nM | 2.33 µM | 109 nM | 0.762 | 274 | 2.31 | 336 nM | 5.57 | 56.1 | > 50 | 106 nM | 0.563 | 83.2 | 1.7 | 113 | 0.801 | 162 | 1.98 | 137 nM | 0.934
6 | CCCCOc1nc2ccccc2cc1C1CNC(=O)c2ccccc2N1 (configuration not stated) | 807 nM | 5.3 µM | 3680 nM | 21.5 | 5920 | 22.1 | 2300 nM | 11.3 | 1130 | 12.5 | 5550 nM | 44.8 | 1750 | 12.2 | 5820 | 38.4 | 4570 | 26.6 | 4780 nM | 26
7 | O=C(O)c1ccccc1/C=C1/Nc2ccccc2C1=O |  | > 100 µM |  | > 100 |  | > 100 |  | > 100 |  | > 100 |  | > 100 |  | > 100 |  | > 100 |  | > 100 |  | > 100
8 | COC(=O)C12CC(NC(=O)c3csc([C@@H](C[C@H](C(C)C)N(C)C(=O)[C@@H](NC(=O)[C@H]4CCCCN4C)C(C)C)OC(C)=O)n3)(C1)C2 | 15.3 nM and 4.73 nM | 0.829 µM and 0.194 µM | 7.48 nM and 3.33 nM | > 33.3 | 379 | > 33.3 | 14.5 nM and 8.01 nM | > 33.3 | 0.745 |  | 2.2 nM and 3.33 nM | > 33.3 | 3.33 | > 33.3 | 7160 | > 33.3 | > 33300 | > 33.3 | 4.34 nM and 3.33 nM | 
9 | CC(=O)O[C@H]1Cc2c([nH]c3ccccc23)[C@@H](c2ccc(Cl)cc2)N1C(=O)CCNC(C)(C)C | 1900 nM | 5.83 µM | 3650 nM | 7.85 | 5750 | 10.5 | 4050 nM | 8.32 | 1090 | 6.11 | 4640 nM | 9.06 | 1640 | 7.52 | 4260 | 8.96 | 1100 | 5.61 | 1790 nM | 6.07
10 | c1ccc(-c2nn(-c3ccccc3)[n+](-c3ccccc3-c3ccccc3)n2)cc1 | 1650 nM | 9.04 µM | 940 nM | 17.3 | 4350 | 21.5 | 21500 nM | > 100 | 1220 | 10.9 | 1240 nM | > 80.7 | 1230 | 19.9 | 248 | 1.53 | 775 | 5.48 | 235 nM | 9.21
